Experimental data reported in patent US11679107B2 (Eisai R&D Management Co., Ltd., priority 2018, dated 2023).
Read-outs that look alike come from different tables or passages of the source.

Assays:
SF3b complexes = target: T1, SF3b complexes (Homo sapiens, UniProt O75533+Q7RTV0); assay: Scintillation proximity assay (SPA) with [3H]-labelled pladienolide probe; type: binding; details: SF3B1 (WT); geometric mean; read-out: SPA-ATS GMean IC50 (nM) SF3B1 (WT)
T1 construct: endogenous in cells; host or cells: Nuclear extracts; A HeLa S3 extract preparation is described for the in vitro splicing assay
In short: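 SF3b complexes captured from nuclear extracts on anti-SF3B1 antibody SPA beads; test compounds pre-incubated 30 min before 2.5 nM [3H]-pladienolide probe added, then 30 min incubation. Bound probe read by scintillation; values from non-linear regression of concentration–response curves.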

[1] = tested on: Ad2 variant pre-mRNAs spliced in HeLa S3 nuclear extracts; assay: In vitro splicing assay (IVS), RT-qPCR of spliced product; type: biochemical; details: for IC50: geometric mean; for Ratio Ad2.1/2.2: ratio of IVS IC50 Ad2.1 to Ad2.2
In short: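 Read-out is one-step TaqMan RT-qPCR of spliced Ad2 mRNA with Ftz as reference, normalized to DMSO and fit by non-linear regression. Reactions held HeLa S3 nuclear extract, 2 ng Ad2-derived pre-mRNA and test compound, with 15 min preincubation. Splicing was started with ATP-containing activation buffer and run 90 min at 30 °C.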

[2] = tested on: NCI-H1568 cells (high MCL1); assay: Cell proliferation and viability, CellTiter-Glo, 72 hours; type: cell-based; details: for GI50: geometric mean
In short: (§1)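 RPMI-1640/10% FBS (Panc: + insulin, FBS 15%); 11-pt half-log dose, ~10 μM-100 pM, 0.1% DMSO; 37° C, 5% CO2; ATP luminescence read; % inhibition vs T0 and vehicle, −100% cidal to 100% uninhibited growth.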

[3] = tested on: Panc 05.04 cells (SF3b K700E mutant); assay: as above; type: cell-based; details: for GI50: geometric mean
In short: as §1

[4] = Ad2.1 pre-mRNA substrate, read-out: qPCR-IVS-ATS GMean IC50 (nM) Ad2.1
[5] = Ad2.2 pre-mRNA substrate, read-out: qPCR-IVS-ATS GMean IC50 (nM) Ad2.2
[6] = 72 h, NCIH1568.1, -100% = cidal, 0% = static, 100% = uninhibited growth
[7] = NCI-H1568, 72 h, read-out: CTGlo-ATS GMean GI50 (nM) 72 h NCIH1568.1, 72 h, NCIH1568.1
[8] = 72 h, PANC0504.1, -100% = cidal, 0% = static, 100% = uninhibited growth
[9] = Panc 05.04, 72 h, read-out: CTGlo-ATS GMean GI50 (nM) 72 h PANC0504.1, 72 h, PANC0504.1
[10] = NCI-H1568, read-out: CTGlo-ATS GMean GI50 (nM) 72 h NCIH1568.1, NCIH1568.1 cells, 72 h
[11] = NCIH1568.1 cells, 72 h, −100% cidal, 0% static, 100% maximal growth
[12] = PANC0504.1 cells, 72 h, −100% cidal, 0% static, 100% maximal growth
[13] = Panc 05.04, read-out: CTGlo-ATS GMean GI50 (nM) 72 h PANC0504.1, PANC0504.1 cells, 72 h
[14] = NCI-H1568, 72 h, read-out: CTGlo-ATS GMean GI50 (nM) 72 h NCIH1568.1, NCIH1568.1 cells, 72 h
[15] = Panc 05.04, 72 h, read-out: CTGlo-ATS GMean GI50 (nM) 72 h PANC0504.1, PANC0504.1 cells, 72 h

Structure (SMILES) | IC50 (SF3b complexes) | IC50 [1, 4] | IC50 [1, 5] | Ratio Ad2.1/2.2 [1] | CTGlo-ATS Mean MinResponse % 72 h NCIH1568.1 [2, 6] | GI50 [2, 7] | CTGlo-ATS Mean MinResponse % 72 h PANC0504.1 [3, 8] | GI50 [3, 9] | GI50 [2, 10] | CTGlo-ATS Mean MinResponse % 72 h NCIH1568.1 [2, 11] | CTGlo-ATS Mean MinResponse % 72 h PANC0504.1 [3, 12] | GI50 [3, 13] | GI50 [2, 14] | GI50 [3, 15] | GI50 ([2]; NCI-H1568, read-out: CTGlo-ATS GMean GI50 (nM) 72 h NCIH1568.1, 72 h, NCIH1568.1) | GI50 ([3]; Panc 05.04, read-out: CTGlo-ATS GMean GI50 (nM) 72 h PANC0504.1, 72 h, PANC0504.1)
C/C(=C\c1cccc(COC(=O)N2CC[C@@H](O)C2)c1)[C@H]1OC(=O)C[C@H](O)CC[C@H](C)[C@@H](OC(=O)N2CCN(C)CC2)/C=C/[C@@H]1C [Compound 254, [(2S,3S,4E,6R,7S,10R)-10-hydroxy-2-[(E)-1-[3-[[(3R)-3-hydroxypyrrolidine-1-carbonyl]oxymethyl]phenyl]prop-1-en-2-yl]-3,7-dimethyl-12-oxo-1-oxacyclododec-4-en-6-yl] 4-methylpiperazine-1-carboxylate] | 5.12 nM | 22000 nM | 52.2 nM | 422.058 | −41.424% | 23.7 nM | −77.065% | 29 nM | – | – | – | – | – | – | – | –
C/C(=C\c1cc(F)cc(N2CCOCC2)c1)[C@H]1OC(=O)C[C@H](O)CC[C@@](C)(O)[C@@H](OC(=O)N2CCC(N3CCCCC3)CC2)/C=C/[C@@H]1C [Compound 62] | 7.86 nM | 587 nM | 52.9 nM | – | – | – | – | – | 54.9 nM | −57.446% | −94.536% | 40.5 nM | – | – | – | –
C/C(=C\c1cc(F)cc(N2CCC[C@H]2C)c1)[C@H]1OC(=O)C[C@H](O)CC[C@H](C)[C@@H](OC(=O)N2CCN(C)CC2)/C=C/[C@@H]1C [Compound 41] | 8.26 nM | 221 nM | 39.2 nM | – | – | – | – | – | – | −77.375% | −82.009% | – | 21.4 nM | 15.8 nM | – | –
C/C(=C\c1cc(F)cc(N2CCOCC2)c1)[C@H]1OC(=O)C[C@H](O)CC[C@H](C)[C@@H](OC(=O)N2CC[C@@H](F)C2)/C=C/[C@@H]1C [Compound 247, [(2S,3S,4E,6R,7S,10R)-2-[(E)-1-(3-fluoro-5-morpholin-4-ylphenyl)prop-1-en-2-yl]-10-hydroxy-3,7-dimethyl-12-oxo-1-oxacyclododec-4-en-6-yl] (3R)-3-fluoropyrrolidine-1-carboxylate] | 14.4 nM | 50.8 nM | 34.6 nM | 1.467 | −67.545% | – | −77.509% | – | – | – | – | – | – | – | 31.4 nM | 40.5 nM
C/C(=C\c1cc(F)cc(N2CCOCC2)c1)[C@H]1OC(=O)C[C@H](O)CC[C@H](C)[C@@H](OC(=O)N(C)C2CN3CCC2CC3)/C=C/[C@@H]1C (stereo partly shown) [Compound 98] | 3.45 nM | 159 nM | 35.9 nM | – | – | – | – | – | – | −75.954% | −87.759% | – | 11.5 nM | 10.3 nM | – | –
C/C(=C\c1cc(F)cc(N2CCN(C(=O)C3CCCCC3)CC2)c1)[C@H]1OC(=O)C[C@H](O)CC[C@H](C)[C@@H](OC(=O)N2CCN(C)CC2)/C=C/[C@@H]1C [Compound 114] | 18.2 nM | 103 nM | 39.1 nM | – | – | – | – | – | – | −87.102% | −82.856% | – | 9.35 nM | 12.3 nM | – | –
[2H]C([2H])([2H])N1CCN(C(=O)O[C@H]2/C=C/C(C)C(/C(C)=C/c3cc(F)cc(N4CCOCC4)c3)OC(=O)CC(O)CC[C@@H]2C)CC1 (stereo in doubt) [Compound 220, [(2R,3R,4E,6R,7S,10S)-2-[(E)-1-(3-fluoro-5-morpholin-4-ylphenyl)prop-1-en-2-yl]-10-hydroxy-3,7-dimethyl-12-oxo-1-oxacyclododec-4-en-6-yl] 4-(trideuteriomethyl)piperazine-1-carboxylate] | 3.17 nM | 19.3 nM | 14.4 nM | 1.344 | −76.936% | 2.01 nM | −90.506% | 4.36 nM | – | – | – | – | – | – | – | –
C/C(=C\c1cc(F)cc(N2CCN(C(=O)Cn3cccn3)CC2)c1)[C@H]1OC(=O)C[C@H](O)CC[C@H](C)[C@@H](OC(=O)N2CCN(C)CC2)/C=C/[C@@H]1C [Compound 122] | 5.5 nM | 18.8 nM | 14.3 nM | – | – | – | – | – | 2 nM | −85.128% | −70.057% | 2.1 nM | – | – | – | –
C/C(=C\c1cc(F)cc(N2CCOCC2)c1)[C@H]1OC(=O)C[C@H](O)CC[C@@](C)(O)[C@@H](OC(=O)N2CCN(C)CC2)/C=C/[C@@H]1C [Compound 61] | 13.5 nM | > 25000 nM | 114 nM | – | – | – | – | – | – | −38.996% | −93.599% | – | 46.8 nM | 42 nM | – | –
CC(=O)N1CCC(n2nnc3c(F)cc(/C=C(\C)[C@H]4OC(=O)C[C@H](O)CC[C@H](C)[C@@H](OC(=O)N5CCNCC5)/C=C/[C@@H]4C)cc32)CC1 [Compound 253, [(2S,3S,4E,6R,7S,10R)-2-[(E)-1-[3-(1-acetylpiperidin-4-yl)-7-fluorobenzotriazol-5-yl]prop-1-en-2-yl]-10-hydroxy-3,7-dimethyl-12-oxo-1-oxacyclododec-4-en-6-yl] piperazine-1-carboxylate] | 1.92 nM | 10 nM | 8.59 nM | 1.167 | −84.782% | 2.42 nM | −80.763% | 12.9 nM | – | – | – | – | – | – | – | –
C/C(=C\c1cc(F)cc(N2CC[C@@H](F)C2)c1)[C@H]1OC(=O)C[C@H](O)CC[C@H](C)[C@@H](OC(=O)N2CCN(C)CC2)/C=C/[C@@H]1C [Compound 14] | 2.72 nM | 584 nM | 54.7 nM | – | – | – | – | – | – | −65.049% | −91.489% | – | 14.1 nM | 19.6 nM | – | –
C/C(=C\c1cc(F)cc(N(C)C2CCN(S(C)(=O)=O)CC2)c1)[C@H]1OC(=O)C[C@H](O)CC[C@H](C)[C@@H](OC(=O)N2CCN(C)CC2)/C=C/[C@@H]1C [Compound 174] | 3.14 nM | 13.1 nM | 10.7 nM | – | – | – | – | – | 3.86 nM | −92.525% | −80.529% | 6.04 nM | – | – | – | –
